From patent US12077503B2, “Substituted cyclic amides and their use as herbicides” (FMC CORPORATION, priority 2015, dated 2024)

What was measured:
Format in all cases: in vivo
[1] = test system: ivy-leaved morning glory (Ipomoea hederacea); experiment: Test G Pre-Emergence Protocol; settings: Ipomoea, pre-emergence, 312 h, evaluated after 13 days
Method in brief: (§1)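 Glasshouse pre-emergence test: soil-sown seeds, sprayed after 1 d at 15.625, 62.5 or 250 g/ha. Conditions 24/16° C day/night, 14 h light, 65% humidity, watering twice daily. Rating 13 d post-spray (100 = total damage).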

[2] = test system: velvetleaf (Abutilon theophrasti); experiment: Test G Pre-Emergence Protocol; settings: Abutilon theophrasti, pre-emergence, 312 h, evaluated after 13 days
Method in brief: as §1

corn (Zea mays) [3] = experiment: Test G Pre-Emergence Protocol; settings: Zea mays, pre-emergence, 312 h, evaluated after 13 days
Method in brief: as §1

[4] = test system: giant foxtail (Setaria faberi); experiment: Test G Pre-Emergence Protocol; settings: Setaria faberi, pre-emergence, 312 h, evaluated after 13 days
Method in brief: as §1

[5] = test system: redroot pigweed (Amaranthus retroflexus); experiment: Test G Pre-Emergence Protocol; settings: Amaranthus retroflexus, pre-emergence, 312 h, evaluated after 13 days
Method in brief: as §1

[6] = test system: barnyardgrass (Echinochloa crus-galli); experiment: Test G Pre-Emergence Protocol; settings: Echinochloa crus-galli, pre-emergence, 312 h, evaluated after 13 days
Method in brief: as §1

[7] = test system: ivy-leaved morning glory (Ipomoea hederacea); experiment: Test G Post-Emergence Protocol; settings: Ipomoea, post-emergence, 312 h, read-out: Morningglory, Ivy-leaved damage rating
Method in brief: (§2)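 Scores run 0 (no damage) to 100 (total damage) and were taken 13 days after spraying. Plants had been raised in pots for 8 days under glasshouse control (24/16 °C, 14 h photoperiod, 65% humidity) and then treated at 15.625, 62.5 or 250 g/ha.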

[8] = test system: velvetleaf (Abutilon theophrasti); experiment: Test G Post-Emergence Protocol; settings: Abutilon theophrasti, post-emergence, 312 h, read-out: Velvetleaf damage rating
Method in brief: as §2

corn (Zea mays) [9] = experiment: Test G Post-Emergence Protocol; settings: Zea mays, post-emergence, 312 h, read-out: Corn damage rating
Method in brief: as §2

[10] = test system: giant foxtail (Setaria faberi); experiment: Test G Post-Emergence Protocol; settings: Setaria faberi, post-emergence, 312 h, read-out: Foxtail, Giant damage rating
Method in brief: as §2

[11] = test system: redroot pigweed (Amaranthus retroflexus); experiment: Test G Post-Emergence Protocol; settings: Amaranthus retroflexus, post-emergence, 312 h, read-out: Pigweed, Redroot damage rating
Method in brief: as §2

[12] = test system: barnyardgrass (Echinochloa crus-galli); experiment: Test G Post-Emergence Protocol; settings: Echinochloa crus-galli, post-emergence, 312 h, read-out: Barnyardgrass damage rating
Method in brief: as §2

[13] = 15.625 g ai/ha, evaluated after 13 days (100=total damage to plant; 0=no damage to plant)
[14] = 62.5 g ai/ha, evaluated after 13 days, 100=total damage to plant, 0=no damage to plant
[15] = 250 g ai/ha, evaluated after 13 days, 100=total damage to plant, 0=no damage to plant

## CSc1ccncc1NC(=O)[C@H]1C(=O)N(C)C[C@@H]1c1cccc(C(F)(F)F)c1 (racemic) [Compound 1750]
[1]; 15.625 g ai/ha, read-out: Morningglory, Ivy-leaved damage rating (100=total damage to plant; 0=no damage to plant)
  pest or weed control at 15.625 g/ha: 0%
[1]; 62.5 g ai/ha, 100=total damage to plant, 0=no damage to plant, read-out: Morningglory, Ivy-leaved damage rating
  pest or weed control at 62.5 g/ha: 0%
[1]; 250 g ai/ha, read-out: Morningglory, Ivy-leaved damage rating (100=total damage to plant; 0=no damage to plant)
  pest or weed control at 250 g/ha: 0%
[2]; 15.625 g ai/ha, read-out: Velvetleaf damage rating (100=total damage to plant; 0=no damage to plant)
  pest or weed control at 15.625 g/ha: 0%
[2]; 62.5 g ai/ha, 100=total damage to plant, 0=no damage to plant, read-out: Velvetleaf damage rating
  pest or weed control at 62.5 g/ha: 0%
[2]; 250 g ai/ha, read-out: Velvetleaf damage rating (100=total damage to plant; 0=no damage to plant)
  pest or weed control at 250 g/ha: 0%
Corn (Zea mays) [3]; 15.625 g ai/ha, read-out: Corn damage rating (100=total damage to plant; 0=no damage to plant)
  plant injury at 15.625 g/ha: 0%
Corn (Zea mays) [3]; 62.5 g ai/ha, 100=total damage to plant, 0=no damage to plant, read-out: Corn damage rating
  plant injury at 62.5 g/ha: 0%
Corn (Zea mays) [3]; 250 g ai/ha, read-out: Corn damage rating (100=total damage to plant; 0=no damage to plant)
  plant injury at 250 g/ha: 10%
[4]; 15.625 g ai/ha, read-out: Foxtail, Giant damage rating (100=total damage to plant; 0=no damage to plant)
  pest or weed control at 15.625 g/ha: 0%
[4]; 62.5 g ai/ha, 100=total damage to plant, 0=no damage to plant, read-out: Foxtail, Giant damage rating
  pest or weed control at 62.5 g/ha: 20%
[4]; 250 g ai/ha, read-out: Foxtail, Giant damage rating (100=total damage to plant; 0=no damage to plant)
  pest or weed control at 250 g/ha: 70%
[5]; 15.625 g ai/ha, read-out: Pigweed, Redroot damage rating (100=total damage to plant; 0=no damage to plant)
  pest or weed control at 15.625 g/ha: 0%
[5]; 62.5 g ai/ha, 100=total damage to plant, 0=no damage to plant, read-out: Pigweed, Redroot damage rating
  pest or weed control at 62.5 g/ha: 0%
[5]; 250 g ai/ha, read-out: Pigweed, Redroot damage rating (100=total damage to plant; 0=no damage to plant)
  pest or weed control at 250 g/ha: 0%
[6]; 15.625 g ai/ha, read-out: Barnyardgrass damage rating (100=total damage to plant; 0=no damage to plant)
  pest or weed control at 15.625 g/ha: 0%
[6]; 62.5 g ai/ha, 100=total damage to plant, 0=no damage to plant, read-out: Barnyardgrass damage rating
  pest or weed control at 62.5 g/ha: 10%
[6]; 250 g ai/ha, read-out: Barnyardgrass damage rating (100=total damage to plant; 0=no damage to plant)
  pest or weed control at 250 g/ha: 10%
[7]; [13]
  pest or weed control at 15.625 g/ha: 0%
[7]; [14]
  pest or weed control at 62.5 g/ha: 10%
[7]; [15]
  pest or weed control at 250 g/ha: 10%
[8]; [13]
  pest or weed control at 15.625 g/ha: 0%
[8]; [14]
  pest or weed control at 62.5 g/ha: 0%
[8]; [15]
  pest or weed control at 250 g/ha: 0%
Corn (Zea mays) [9]; [13]
  plant injury at 15.625 g/ha: 0%
Corn (Zea mays) [9]; [14]
  plant injury at 62.5 g/ha: 10%
Corn (Zea mays) [9]; [15]
  plant injury at 250 g/ha: 10%
[10]; [13]
  pest or weed control at 15.625 g/ha: 0%
[10]; [14]
  pest or weed control at 62.5 g/ha: 0%
[10]; [15]
  pest or weed control at 250 g/ha: 50%
[11]; [13]
  pest or weed control at 15.625 g/ha: 0%
[11]; [14]
  pest or weed control at 62.5 g/ha: 10%
[11]; [15]
  pest or weed control at 250 g/ha: 20%
[12]; [13]
  pest or weed control at 15.625 g/ha: 0%
[12]; [14]
  pest or weed control at 62.5 g/ha: 0%
[12]; [15]
  pest or weed control at 250 g/ha: 20%
